According to patent publication US20200163913A1 (Shanghai Huali Biomedical Co., Ltd., priority 2017, published 2020):

test system: human cervical cancer cell HeLa; test: CCK-8 cell proliferation inhibition, HeLa; format: cell-based; conditions: Homo sapiens, HeLa, 72 h, CCK-8, 72 h; read-out: IC50 Hela
Description: (§1) Take more than 90% of live cells for experiments. Cell proliferation inhibition test uses EnoGeneCell™ Counting Kit-8 (CCK-8) cell viability detection kit. Cells are digested and counted to make a cell suspension with a concentration of 1×10^5 cells/mL, 100 μL of cell suspension (1×10^4 cells per well) was added to each well of a 96-well plate; Incubate in a 5% CO2 incubator for 24 hours; add 100 μL of the corresponding drug-containing culture medium to each well, and set a negative control group, a vehicle control group, and a positive control group, with 5 replicates in each group; place the 96-well plate at 37° C.

Compound	IC50
COc1ccc(/C=C\c2cc(OC)c(OC)c(OC)c2)cc1O [CA-4, (Z)-3,4,5-trimethoxy-3′-hydroxy-4′-methoxystilbene, reference compound]	11.3 µM
COc1ccc(/C=C/c2cc(OC)c(OC)c(OC)c2)cc1OS(N)(=O)=O [Compound A1-2, (E)-3,4,5-trimethoxy-4′-methoxy-3′-sulfamate stilbene]	4.5 µM
COc1ccc(CCc2cc(OC)c(OC)c(OC)c2)cc1OS(N)(=O)=O [Compound A1-3, 3,4,5-trimethoxy-4′-methoxy-3′-sulfamate diphenylethane]	9.04 µM
CCOc1ccc(/C=C/c2cc(OC)c(OC)c(OC)c2)cc1OS(N)(=O)=O [Compound A2-2, (E)-3,4,5-trimethoxy-4′-ethoxy-3′-sulfamate stilbene]	5.64 µM

test system: human lung cancer cell A549; test: CCK-8 cell proliferation inhibition, A549; format: cell-based; conditions: A549, CCK-8, 72 h, read-out: IC50 A549
Description: as §1

Compound	IC50
COc1ccc(/C=C\c2cc(OC)c(OC)c(OC)c2)cc1O [CA-4, (Z)-3,4,5-trimethoxy-3′-hydroxy-4′-methoxystilbene, reference compound]	5.99 µM
COc1ccc(/C=C/c2cc(OC)c(OC)c(OC)c2)cc1OS(N)(=O)=O [Compound A1-2, (E)-3,4,5-trimethoxy-4′-methoxy-3′-sulfamate stilbene]	11.4 µM
COc1ccc(CCc2cc(OC)c(OC)c(OC)c2)cc1OS(N)(=O)=O [Compound A1-3, 3,4,5-trimethoxy-4′-methoxy-3′-sulfamate diphenylethane]	15.8 µM
CCOc1ccc(/C=C/c2cc(OC)c(OC)c(OC)c2)cc1OS(N)(=O)=O [Compound A2-2, (E)-3,4,5-trimethoxy-4′-ethoxy-3′-sulfamate stilbene]	4.86 µM

test system: human colon cancer cell HCT-116; test: CCK-8 cell proliferation inhibition, HCT-116; format: cell-based; conditions: Homo sapiens, HCT-116, 72 h, CCK-8, 72 h; read-out: IC50 HTC116
Description: as §1

Compound	IC50
COc1ccc(/C=C\c2cc(OC)c(OC)c(OC)c2)cc1O [CA-4, (Z)-3,4,5-trimethoxy-3′-hydroxy-4′-methoxystilbene, reference compound]	9 µM
COc1ccc(/C=C/c2cc(OC)c(OC)c(OC)c2)cc1OS(N)(=O)=O [Compound A1-2, (E)-3,4,5-trimethoxy-4′-methoxy-3′-sulfamate stilbene]	1.57 µM
COc1ccc(CCc2cc(OC)c(OC)c(OC)c2)cc1OS(N)(=O)=O [Compound A1-3, 3,4,5-trimethoxy-4′-methoxy-3′-sulfamate diphenylethane]	3.08 µM
CCOc1ccc(/C=C/c2cc(OC)c(OC)c(OC)c2)cc1OS(N)(=O)=O [Compound A2-2, (E)-3,4,5-trimethoxy-4′-ethoxy-3′-sulfamate stilbene]	9.12 µM

test system: human liver cancer cell HepG2; test: CCK-8 cell proliferation inhibition, HepG2; format: cell-based; conditions: Homo sapiens, HepG2, 72 h, CCK-8, 72 h; read-out: IC50 HepG2
Description: as §1

Compound	IC50
COc1ccc(/C=C\c2cc(OC)c(OC)c(OC)c2)cc1O [CA-4, (Z)-3,4,5-trimethoxy-3′-hydroxy-4′-methoxystilbene, reference compound]	16 µM
COc1ccc(/C=C/c2cc(OC)c(OC)c(OC)c2)cc1OS(N)(=O)=O [Compound A1-2, (E)-3,4,5-trimethoxy-4′-methoxy-3′-sulfamate stilbene]	0.87 µM
COc1ccc(CCc2cc(OC)c(OC)c(OC)c2)cc1OS(N)(=O)=O [Compound A1-3, 3,4,5-trimethoxy-4′-methoxy-3′-sulfamate diphenylethane]	1.14 µM
CCOc1ccc(/C=C/c2cc(OC)c(OC)c(OC)c2)cc1OS(N)(=O)=O [Compound A2-2, (E)-3,4,5-trimethoxy-4′-ethoxy-3′-sulfamate stilbene]	2.63 µM

same assay, conditions: Homo sapiens, HepG2, running text; read-out: IC50 HepG2

Compound	IC50
COc1ccc(/C=C/c2cc(OC)c(OC)c(OC)c2)cc1OS(N)(=O)=O [Compound A1-2, (E)-3,4,5-trimethoxy-4′-methoxy-3′-sulfamate stilbene]	< 1 µM

test system: human gastric cancer cell MKN45; test: CCK-8 cell proliferation inhibition, MKN45; format: cell-based; conditions: MKN-45, 72 h, CCK-8, 72 h, read-out: IC50 MKN45
Description: as §1

Compound	IC50
COc1ccc(/C=C\c2cc(OC)c(OC)c(OC)c2)cc1O [CA-4, (Z)-3,4,5-trimethoxy-3′-hydroxy-4′-methoxystilbene, reference compound]	3.44 µM
COc1ccc(/C=C/c2cc(OC)c(OC)c(OC)c2)cc1OS(N)(=O)=O [Compound A1-2, (E)-3,4,5-trimethoxy-4′-methoxy-3′-sulfamate stilbene]	10.5 µM
COc1ccc(CCc2cc(OC)c(OC)c(OC)c2)cc1OS(N)(=O)=O [Compound A1-3, 3,4,5-trimethoxy-4′-methoxy-3′-sulfamate diphenylethane]	11.9 µM
CCOc1ccc(/C=C/c2cc(OC)c(OC)c(OC)c2)cc1OS(N)(=O)=O [Compound A2-2, (E)-3,4,5-trimethoxy-4′-ethoxy-3′-sulfamate stilbene]	8.05 µM

test system: human gastric cancer cell MGC-803; test: CCK-8 cell proliferation inhibition, MGC-803; format: cell-based; conditions: MGC-803, 72 h, CCK-8, 72 h, read-out: IC50 MGC803
Description: as §1

Compound	IC50
COc1ccc(/C=C\c2cc(OC)c(OC)c(OC)c2)cc1O [CA-4, (Z)-3,4,5-trimethoxy-3′-hydroxy-4′-methoxystilbene, reference compound]	1.76 µM
COc1ccc(/C=C/c2cc(OC)c(OC)c(OC)c2)cc1OS(N)(=O)=O [Compound A1-2, (E)-3,4,5-trimethoxy-4′-methoxy-3′-sulfamate stilbene]	2.98 µM
COc1ccc(CCc2cc(OC)c(OC)c(OC)c2)cc1OS(N)(=O)=O [Compound A1-3, 3,4,5-trimethoxy-4′-methoxy-3′-sulfamate diphenylethane]	3.61 µM
CCOc1ccc(/C=C/c2cc(OC)c(OC)c(OC)c2)cc1OS(N)(=O)=O [Compound A2-2, (E)-3,4,5-trimethoxy-4′-ethoxy-3′-sulfamate stilbene]	7.63 µM

biological target: Arylsulfatase; test: Arylsulfatase activity assay in vitro; format: biochemical; conditions: p-nitrophenyl sulfate substrate, 405 nm; read-out: IC50 sulfatase
Description: Weigh an appropriate amount of the test compound and dissolve it in dimethyl sulfoxide. Dilute it with Tris-HCl buffer for 2, 5, 10, 20, 50, 100, 200, 500, 1000, 2000, 5000, and 10,000 times. Add another dilution gradient to the sample. Arylsulfatase and potassium p-nitrophenyl sulfate are directly dissolved in Tris-HCl buffer. 40 μL of the test compound, 50 μL of arylsulfatase and 50 μL of potassium p-nitrobenzene sulfate were added to a 96-well plate for reaction. A blank control without enzymes and a standard control without test compounds are used. The volume is made up with Tris-HCl buffer. 405 nm detection in the microplate reader, each sample is measured for 40 times, and the interval is 30 s. The representative time node within the time period with good linearity of the absorbance value are selected for data analysis. The measured absorbance value are subtracted from the background value of the blank control and the initial value when the reaction time are 0. For comparison, calculate the inhibition rate at different concentrations, and use the built-in forecast function of excel to predict the IC50 value.

Compound	IC50
COc1ccc(/C=C/c2cc(OC)c(OC)c(OC)c2)cc1OS(N)(=O)=O [Compound A1-2, (E)-3,4,5-trimethoxy-4′-methoxy-3′-sulfamate stilbene]	12.9 µM

test system: Tubulin; test: Tubulin polymerization activity test; format: biochemical; conditions: tubulin 4.8 mg/ml, 37° C., 340 nm; read-out: IC50 (Table 3, tubulin polymerization test)
Description: Tubulin (4.8 mg/ml) protein was mixed with the test compound in a PEM buffer (100 mM PIPES, 1 mM MgCl2 and 1 mM EGTA) containing 1 mM GTP and 5% glycerol. A SPECTRA MAX 190 (Molecular Device) spectrophotometer was used to monitor the microtubule polymerization at 37° C. by light scattering at 340 nm, and the microtubule polymerization was calculated from the absorbance value. Each sample was tested three times at ten different concentrations.

Compound	IC50
COc1ccc(/C=C/c2cc(OC)c(OC)c(OC)c2)cc1OS(N)(=O)=O [Compound A1-2, (E)-3,4,5-trimethoxy-4′-methoxy-3′-sulfamate stilbene]	55.7 µM
COc1ccc(CCc2cc(OC)c(OC)c(OC)c2)cc1OS(N)(=O)=O [Compound A1-3, 3,4,5-trimethoxy-4′-methoxy-3′-sulfamate diphenylethane]	72.6 µM
